Results: patent US7423044B2, “Pyrimidine derivatives useful in the treatment of insulin resistance and hyperglycemia” (Wyeth, priority 2002, dated 2008)

Molecular target: T1, PTP-1B (Homo sapiens, UniProt P18031)
T1 sequence (P18031 1-435): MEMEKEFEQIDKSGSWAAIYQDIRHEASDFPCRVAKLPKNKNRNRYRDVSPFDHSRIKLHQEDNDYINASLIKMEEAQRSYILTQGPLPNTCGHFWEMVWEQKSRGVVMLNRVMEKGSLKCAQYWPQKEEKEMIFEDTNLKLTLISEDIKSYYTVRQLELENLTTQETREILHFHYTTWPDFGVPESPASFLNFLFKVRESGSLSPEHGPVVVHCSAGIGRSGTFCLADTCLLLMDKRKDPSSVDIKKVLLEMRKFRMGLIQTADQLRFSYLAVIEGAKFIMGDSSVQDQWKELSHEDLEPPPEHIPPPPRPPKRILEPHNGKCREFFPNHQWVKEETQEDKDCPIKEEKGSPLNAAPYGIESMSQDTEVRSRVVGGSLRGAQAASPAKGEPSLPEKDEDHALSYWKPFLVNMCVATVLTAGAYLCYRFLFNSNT
Assay: PTPase inhibition assay (DIFMUP fluorescence kinetic assay)
Type: biochemical
Settings: 20 μM DIFMUP, 1 nM enzyme; for Ki: apparent final potency from steady-state velocity (Vs), read-out: Kiapp; for inhibition at 40 µM: inhibitor at 40 μM, from average velocity (Va)
Experimental: Measurement of PTPase activity: The present compounds are assayed in an enzyme activity-based assay. PTP-1B is known to dephosphorylate phospho-peptides. This assay is a fluorescence intensity based kinetic assay, taking advantage of a non-peptidyl substrate, 6,8-difluoro-4-methylumbelliferyl phosphate (DIFMUP). When excited at 358 nm, the dephosphorylated product of DIFMUP emits at 450 nm.
The compounds of Examples 1-22 were analyzed as follows. The assay was conducted in black 384-well non-treated plates (Costar#3710). The assay buffer contained 50 mM 3,3-dimethyl glutaric acid, pH 7.0, 48 mM NaCl, 1 mM EDTA. Inhibitors were prepared as DMSO solution and diluted to desired concentrations using 50 mM HEPES, pH 7.4. PTP-1B was diluted to a 2.5 nM working stock using the assay buffer containing additional 0.001% (w/v) hydrogenated Triton X-100. DIFMUP was diluted to 40 μM using the assay buffer. 5 μl of inhibitor was first dispensed into assay plate. In cases of control reactions, […] of the assay buffer was dispensed. This was followed by 25 μl of DIFMUP working stock. The reaction was then initiated by the addition of 20 μl of PTP-1B working stock. The final DIFMUP concentration was 20 μM (˜1.6×Km). The final enzyme concentration was 1 nM and the detergent concentration was 0.0004% (w/v). Typical inhibitor concentrations were from 0.08 to 40 μM. The reaction progress was monitored continuously for 30 min.
Calculations: For data analysis, the last five data points were used to obtain a slope corresponding to the estimated steady-state velocity (Vs), and the overall progress curves were used to obtain the average velocity (Va), by linear regression in both cases. The apparent final potency of inhibitor (Kiapp) was then calculated from Vs data, using the standard hyperbolic inhibition equation. The IC50 values were calculated from Va data using the sigmoidal inhibition equation. % Inhibition values were calculated from Va values of inhibitor at 40 μM, and the average Va value of control reactions.

SMILES	Ki [µM]	inhibition at 40 µM [%]
O=C(O)c1ccc(COc2cc(-c3ccccc3)nc(-c3ccc(Cl)cc3)n2)cc1 [Example 1, 4-({[2-(4-Chlorophenyl)-6-phenylpyrimidin-4-yl]oxy}methyl)benzoic acid]	1.67	100
Fc1ccc(COc2nc(-c3ccc(Cl)cc3)nc3c2CCC3)cc1 [Example 2, 2-(4-Chlorophenyl)-4-[(4-fluorobenzyl)oxy]-6,7-dihydro-5H-cyclopenta[d]pyrimidine]		10
Fc1ccc(COc2cc(-c3ccccc3)nc(-c3ccncc3)n2)cc1 [Example 3, 4-[(4-Fluorobenzyl)oxy]-6-phenyl-2-pyridin-4-ylpyrimidine]		11
Fc1ccc(COc2nc(-c3ccccc3)nc3c2CCC3)cc1 [Example 4, 4-[(4-Fluorobenzyl)oxy]-2-phenyl-6,7-dihydro-5H-cyclopenta[d]pyrimidine]		12
CC(C)c1cc(OCc2ccc(F)cc2)nc(-c2cccc([N+](=O)[O-])c2)n1 [Example 10, 4-[(4-Fluorobenzyl)oxy]-6-isopropyl-2-(3-nitrophenyl)pyrimidine]		56
CC(C)c1cc(OCc2ccc(C#N)cc2)nc(-c2cc(Cl)cc(Cl)c2)n1 [Example 11, 4-({[2-(3,5-Dichlorophenyl)-6-isopropylpyrimidin-4-yl]oxy}methyl)benzonitrile]		34
CC(C)c1cc(OCc2ccc(C#N)cc2)nc(-c2cccc([N+](=O)[O-])c2)n1 [Example 13, 4-({[6-isopropyl-2-(3-nitrophenyl)pyrimidin-4-yl]oxy}methyl)benzonitrile]		55
N#Cc1ccc(COc2nc(-c3cccc([N+](=O)[O-])c3)nc3c2CN(Cc2ccccc2)CC3)cc1 [Example 14, 4-({[6-Benzyl-2-(3-nitrophenyl)-5,6,7,8-tetrahydropyrido[4,3-d]pyrimidin-4-yl]oxy}methyl)benzonitrile]		64
CC(C)c1cc(OCc2ccc(C(F)(F)F)cc2)nc(-c2cc(Cl)cc(Cl)c2)n1 [Example 15, 2-(3,5-Dichlorophenyl)-4-isopropyl-6-{[4-(trifluoromethyl)benzyl]oxy} pyrimidine]		57
FC(F)(F)c1ccc(COc2nc(-c3cc(Cl)cc(Cl)c3)nc3c2CN(Cc2ccccc2)CC3)cc1 [Example 16, 6-Benzyl-2-(3,5-dichlorophenyl)-4-{[4-(trifluoromethyl)benzyl]oxy}-5,6,7,8-tetrahydropyrido[4,3-d]pyrimidine]		52
CC(C)c1cc(OCc2ccc(C(F)(F)F)cc2)nc(-c2cccc([N+](=O)[O-])c2)n1 [Example 17, 4-Isopropyl-2-(3-nitrophenyl)-6-{[4-(trifluoromethyl)benzyl]oxy} pyrimidine]		49
O=[N+]([O-])c1cccc(-c2nc3c(c(OCc4ccc(C(F)(F)F)cc4)n2)CN(Cc2ccccc2)CC3)c1 [Example 18, 6-Benzyl-2-(3-nitrophenyl)-4-{[4-(trifluoromethyl)benzyl]oxy}-5,6,7,8-tetrahydropyrido[4,3-d]pyrimidine]		51
CC(C)c1cc(OCc2ccc(C(=O)O)cc2)nc(-c2cc(Cl)cc(Cl)c2)n1 [Example 19, 4-({[2-(3,5-Dichlorophenyl)-6-isopropylpyrimidin-4-yl]oxy}methyl)benzoic acid]		101
O=C(O)c1ccc(COc2nc(-c3cc(Cl)cc(Cl)c3)nc3c2CN(Cc2ccccc2)CC3)cc1 [Example 20, 4-({[6-Benzyl-2-(3,5-dichlorophenyl)-5,6,7,8-tetrahydropyrido[4,3-d]pyrimidin-4-yl]oxy}methyl)benzoic acid]		100
O=C(O)c1ccc(COc2nc(-c3cccc([N+](=O)[O-])c3)nc3c2CN(Cc2ccccc2)CC3)cc1 [Example 22, 4-({[6-Benzyl-2-(3-nitrophenyl)-5,6,7,8-tetrahydropyrido[4,3-d]pyrimidin-4-yl]oxy}methyl)benzoic acid]		93

Results, then the molecule that gave them:

Ki [µM]	inhibition at 40 µM [%]	SMILES
	11	Fc1ccc(COc2cc(-c3ccccc3)nc(-c3ccc(Cl)cc3)n2)cc1 [Example 5, 2-(4-Chlorophenyl)-4-[(4-fluorobenzyl)oxy]-6-phenylpyrimidine]
7.21	56	O=C(O)c1ccc(COc2cc(-c3ccccc3)nc(-c3ccncc3)n2)cc1 [Example 6, 4-{[(6-Phenyl-2-pyridin-4-ylpyrimidin-4-yl)oxy]methyl}benzoic acid]
2.97	99	O=C(O)c1ccc(COc2cc(-c3ccccc3)nc(-c3ccccc3)n2)cc1 [Example 7, 4-{[(2,6-Diphenylpyrimidin-4-yl)oxy]methyl}benzoic acid]
	48	CC(C)c1cc(OCc2ccc(F)cc2)nc(-c2cc(Cl)cc(Cl)c2)n1 [Example 8, 2-(3,5-Dichlorophenyl)-4-[(4-fluorobenzyl)oxy]-6-isopropylpyrimidine]
	55	Fc1ccc(COc2nc(-c3cc(Cl)cc(Cl)c3)nc3c2CN(Cc2ccccc2)CC3)cc1 [Example 9, 6-Benzyl-2-(3,5-dichlorophenyl)-4-[(4-fluorobenzyl)oxy]-5,6,7,8-tetrahydropyrido[4,3-d]pyrimidine]
	54	N#Cc1ccc(COc2nc(-c3cc(Cl)cc(Cl)c3)nc3c2CN(Cc2ccccc2)CC3)cc1 [Example 12, 4-({[6-Benzyl-2-(3,5-dichlorophenyl)-5,6,7,8-tetrahydropyrido[4,3-d]pyrimidin-4-yl]oxy}methyl)benzonitrile]
	101	CC(C)c1cc(OCc2ccc(C(=O)O)cc2)nc(-c2cccc([N+](=O)[O-])c2)n1 [Example 21, 4-({[6-Isopropyl-2-(3-nitrophenyl)pyrimidin-4-yl]oxy}methyl)benzoic acid]
